Tests used:
S. Aureus Smith = test: In vitro antibacterial activity, MIC (modified Autotiter method); format: cell-based, Staphylococcus aureus; settings: 18-20 hours at 37° C.; for MIC: Staphylococcus aureus, 20 h, read-out: MIC S. Aureus Smith
Experimental: (§1) The antibacterial and antifungal activity of representative examples of the compounds of Formula I was determined using a modification of the Autotiter method described by Goss, et al. Applied Microbiology 16 (9) 1,414-1,416 (1968) in which a 1,000 mcg./ml. solution of the test compound is prepared. To the first cup of the Autotray is added 0.1 ml. of the test solution. Activation of the Autotiter initiates a sequence of operations by which 0.05 ml. of the test compound solution is withdrawn from the cup by a Microtiter transfer loop and diluted in 0.05 ml. of sterile water. Following this operation, 0.05 ml. of inoculated double-strength semisynthetic medium (glucose) is added automatically to each cup. The overall operation results in final drug concentrations ranging from 500 to 0.06 mcg./ml. in twofold decrements. […] The compounds were thus tested as solutions against a variety of gram positive and gram negative bacteria including Staphylococcus aureus, Proteus mirabilis, Escherichia coli, Klebsiella pneumoniae, Pseudomonas aeruginosa, Streptococcus pyogenes, and against such fungi as Aspergillus niger, Candida albicans and Trichophyton mentagrophytes.

E. coli 100/B22 = test: as above; format: cell-based, Escherichia coli; settings: 18-20 hours at 37° C.; for MIC: Escherichia coli, 100/B22, 20 h, read-out: MIC E. coli 100/B22
Experimental: as §1

E. coli AB1932-1 = test: as above; format: cell-based, Escherichia coli; settings: 18-20 hours at 37° C.; for MIC: Escherichia coli, AB19321, 20 h, read-out: MIC E. coli AB1932-1
Experimental: as §1

E. coli Vogel = test: as above; format: cell-based, Escherichia coli; settings: 18-20 hours at 37° C.; for MIC: Escherichia coli, 20 h, read-out: MIC E. coli Vogel
Experimental: as §1

K. pneum. 39645 = test: as above; format: cell-based, Klebsiella pneumoniae; settings: 18-20 hours at 37° C.; for MIC: Klebsiella pneumoniae, 20 h, read-out: MIC K. pneum. 39645
Experimental: as §1

P. mirab. MGH-1 = test: as above; format: cell-based, Proteus mirabilis; settings: 18-20 hours at 37° C.; for MIC: Proteus mirabilis, 20 h, read-out: MIC P. mirab. MGH-1
Experimental: as §1

Ps. aerug. MGH-2 = test: as above; format: cell-based, Pseudomonas aeruginosa; settings: 18-20 hours at 37° C.; for MIC: Pseudomonas aeruginosa, 20 h, read-out: MIC Ps. aerug. MGH-2
Experimental: as §1

S. pyogen. C203 = test: as above; format: cell-based, Streptococcus pyogenes; settings: 18-20 hours at 37° C.; for MIC: Streptococcus pyogenes, 20 h, read-out: MIC S. pyogen. C203
Experimental: as §1

A. niger 16404 = test: In vitro antifungal activity, MIC (modified Autotiter method); format: cell-based, Aspergillus niger; settings: 18-20 hours at 37° C.; for MIC: Aspergillus niger, 16404, 20 h, read-out: MIC A. niger 16404
Experimental: as §1

C. albicans 10231 = test: as above; format: cell-based, Candida albicans; settings: 18-20 hours at 37° C.; for MIC: Candida albicans, 10231, 20 h, read-out: MIC C. albicans 10231
Experimental: as §1

C. albicans Wisc. = test: as above; format: cell-based, Candida albicans; settings: 18-20 hours at 37° C.; for MIC: Candida albicans, 20 h, read-out: MIC C. albicans Wisc.
Experimental: as §1

T. menta. 9129 = test: as above; format: cell-based, Trichophyton mentagrophytes; settings: 18-20 hours at 37° C.; for MIC: Trichophyton mentagrophytes, 20 h, read-out: MIC T. menta. 9129
Experimental: as §1

SMILES	MIC (S. Aureus Smith) [µg/mL]	MIC (E. coli 100/B22) [µg/mL]	MIC (E. coli AB1932-1) [µg/mL]	MIC (E. coli Vogel) [µg/mL]	MIC (K. pneum. 39645) [µg/mL]	MIC (P. mirab. MGH-1) [µg/mL]	MIC (Ps. aerug. MGH-2) [µg/mL]	MIC (S. pyogen. C203) [µg/mL]	MIC (A. niger 16404) [µg/mL]	MIC (C. albicans 10231) [µg/mL]	MIC (C. albicans Wisc.) [µg/mL]	MIC (T. menta. 9129) [µg/mL]	further results
CCCCCCCNc1cc[n+](CCCCCC[n+]2ccc(NCCCCCCC)cc2)cc1 [Example 62C, 1,6-bis-[4-(heptylamino)-1-pyridinium]hexane dichloride]	–	–	–	–	–	–	–	–	–	–	–	–	MIC S. Aureus Smith (S. Aureus Smith): 0.24 µg/mL; MIC E. coli 100/B22 (E. coli 100/B22): 1.95 µg/mL; MIC E. coli AB1932-1 (E. coli AB1932-1): 1.95 µg/mL; MIC E. coli Vogel (E. coli Vogel): 3.9 µg/mL; MIC K. pneum. 39645 (K. pneum. 39645): 3.9 µg/mL; MIC P. mirab. MGH-1 (P. mirab. MGH-1): > 125 µg/mL; MIC Ps. aerug. MGH-2 (Ps. aerug. MGH-2): > 62.5 µg/mL; MIC S. pyogen. C203 (S. pyogen. C203): 0.98 µg/mL; MIC A. niger 16404 (A. niger 16404): 7.8 µg/mL; MIC C. albicans 10231 (C. albicans 10231): 3.9 µg/mL; MIC C. albicans Wisc. (C. albicans Wisc.): 3.9 µg/mL; MIC T. menta. 9129 (T. menta. 9129): 3.9 µg/mL
CCCCCCCCCCNc1cc[n+](CCCCCC[n+]2ccc(NCCCCCCCCCC)cc2)cc1 [Example 64B, 1,6-bis-[4-(decylamino)-1-pyridinium]hexane dibromide]	1	7.8	1.95	1.95	3.9	1.95	7.8	1	7.8	1.95	3.9	1	–
CCCCCCCCCCNc1cc[n+](CCCCCCC[n+]2ccc(NCCCCCCCCCC)cc2)cc1 [Example 65, 1,7-bis-[4-(decylamino)-1-pyridinium]heptane dibromide]	1	3.9	3.9	3.9	7.8	3.9	7.8	1	7.8	15.6	15.6	1.95	–
CCCCCCCCCCNc1cc[n+](CCCCCCCC[n+]2ccc(NCCCCCCCCCC)cc2)cc1 [Example 66, 1,8-bis-[4-(decylamino)-1-pyridinium]octane dibromide]	1	3.9	7.8	1.95	3.9	7.8	7.8	1.95	15.6	7.8	15.6	1.95	–
CCCCCCCCCCNc1cc[n+](CCCCCCCCC[n+]2ccc(NCCCCCCCCCC)cc2)cc1 [Example 67, 1,9-bis-[4-(decylamino)-1-pyridinium]nonane dibromide]	1	3.9	7.8	1.95	15.6	7.8	7.8	1.95	31.3	31.3	15.6	3.9	–
CCCCCCCCCCNc1cc[n+](CCCCCCCCCC[n+]2ccc(NCCCCCCCCCC)cc2)cc1 [Example 68, 1,10-bis-[4-(decylamino)-1-pyridinium]decane dibromide]	1.95	15.6	15.6	7.8	31.3	7.8	15.6	3.9	15.6	15.6	15.6	3.9	–
CCCCCCCCCCNc1cc[n+](CCCCCCCCCCCC[n+]2ccc(NCCCCCCCCCC)cc2)cc1 [Example 69, 1,12-bis-[4-(decylamino)-1-pyridinium]dodecane dibromide]	1.95	15.6	31.3	7.8	31.3	15.6	15.6	3.9	15.6	15.6	15.6	3.9	–
CCCCCCCCCCCCNc1cc[n+](CCCCCC[n+]2ccc(NCCCCCCCCCCCC)cc2)cc1 [Example 70, 1,6-bis-[4-(dodecylamino)-1-pyridinium]hexane dibromide]	7.8	62.5	> 62.5	31.3	> 62.5	> 62.5	> 62.5	7.8	62.5	15.6	31.3	7.8	–
